Reference: patent publication US6521431B1, “Biodegradable cross-linkers having a polyacid connected to reactive groups for cross-linking polymer filaments” (Access Pharmaceuticals, Inc., priority 1999, dated 2003)
Read-outs that look alike come from different tables or passages of the source.

Tests used:
[1] = Release of labeled macromolecule and labeled polymer backbone from degrading gel network; format: physicochemical; settings: pH 7.3, 37° C., monitored at 550 nm (FIG. 7)
Source text: Gels were formed by the same method as above, but in this case other compounds were included during the preparation of the gels to study the release of small molecules from the network. In one case, the network itself was labeled with a polymerizable derivative of tetramethyl rhodamine (TMRAHMAm) in order to show the release (degradation) of the network itself (see FIG. 6). In the other case fluorescent rhodamine labeled albumin (Molecular Probes, Eugene Oreg.) was included in the uncharged network to show diffusive release of a macromolecule from the network (see FIG. 7).
To a 3 mL test tube was charged TMRAHMAm (3.0 mg, 5.0 μmol; 30 μL of a 100 mg/mL solution in CHCl3) which was then placed under a 7 mtorr vacuum for 3 hours. […]
Gels were suspended in buffers of different pH's: All buffers were adjusted to the same ionic strength. The release of the rhodamine labeled albumin and the rhodamine labeled HPMA was monitored at 550 nm. 750 μL of the sample was removed from the vial and periodically measured on a spectrophotometer. […]
The examination of the release of macromolecules entrained in the polymer network provides another way to study the performance of these materials. […] Moreover, the release of a model macromolecular solute (TMRA-albumin, molecular weight of ^˜66,000 Da.) from the network is measured spectrophotometrically.

[2] = pH 7.3
Method: (§1) The gels in this section were made at a mole feed ratio of 1.5 mole % cross-linker, as a copolymer with 98.5 mole % HPMA. Before the gels were polymerized, three 1.0 mL plastic syringes to be used as a slab gel template were silylanized by briefly incubating them in a heptane solution containing Sigmacote and oven drying at 90° C.
(§2) The wire was held in place by a septa which was placed over the tip of the syringe, as the solution polymerized. This formed a hole in the center of the cylinder, which was later used as a place to insert a wire hanger for the initially brittle and finally fragile gel, in order to measure its swelling and degradation kinetics as a change of mass with time. Gelation occurred within one to five minutes and the syringe was allowed to sit for 4 hours at room temperature. At this point the wire was removed from the center of the solid and the end of the plastic syringe was removed with a razor blade. The plunger was then used to extrude the gel from the syringe in 100 μL increments which were cut into small cylinders as they hung out from the end of the syringe. The gels were then placed on tarred wire holders and the initial mass of the assembly was determined. The resulting clear isotropic gels had the composition of poly(HPMA-co-HPMAGlySuc) 98.5:1.5. The gels were then incubated in pH 5, 100 mM sodium acetate buffer for 24 hours. They were then charged into vials of differing pH to study the degradation kinetics.
(§3) The gels were placed in 15 mL vials containing 10 mL of buffers. The masses of wire holders were determined before the gels were placed on them. The original mass of the gel in its relaxed state was also known by subtraction from the total mass of the assembly. The original dry mass of the gel was determined by drying three gels in their relaxed state from each composition and determining the dry mass of the gel. These values were then used to calculate the inverse of the volume fraction of polymer in the gel (Qv) respectively, using the densities of the polymer and water. The incubation solutions were changed each time the gel was weighed. The gels were incubated in a gyratory water-bath shaker (New Brunswick Scientific, New Brunswick, N.J.). The temperature was regulated to be 37±2° C. and the shaker was set to 30 rotations per minute.
(§4) The property of the change of volume of the polymer network can be measured by weighing the gel at different time points.
(§5) Since the swelling is related to network cross-link density by weighing the macroscopic gels at various times throughout their swelling one can obtain information about the change in cross-link density and thus the rate of degradation.

[3] = Swelling of acrylic acid / cross-linker water absorbent gel in PBS; format: physicochemical; settings: acrylic acid gel cross-linked with HPMAGlySuc, after incubating in PBS pH 7.4 for 3 days
Method: To a 5 mL test tube was charged acrylic acid (675 μL, 9.85 mmol), water (1120 μL) and HPMAGlySuc (73 mg, 0.15 mmol) (5b). The cross-linker was weighed into the mixture as described earlier. The mixture was homogenized and APS was added (66.6 μL, […]) from a 2.43 M solution in water. This solution was again mixed. To this solution was added TMED (137 μL, 0.287 mmol) from a 2.10 M pH 7.0 solution in water. The mixture was vortexed rapidly for 15 seconds and the polymerizing solution was charged into two 1.0 mL syringes that acted as a mold for the polymerization. The syringes were allowed to sit for four hours. The gel was removed from the syringe and cut into pieces (^˜100 μL cylinders). The mass of the cylinder was recorded and placed in a 20 mL vial containing 18 mL of PBS at pH 7.4. The gels were incubated overnight with buffer. The next day the buffer was changed twice in order to keep a constant external pH as the gel was charged. After incubating in PBS for 3 days the gel has swollen with water to approximately 20 times the total initial polymer volume.

[4] = Degradation (degradative swelling) of HPMA-co-cross-linker hydrogels in buffer; settings: HPMA-co-XL gels, 1.5 mole % cross-linker, pH 7.3 buffer, 37° C.
Method: as §1, §2, §3, §4, §5

SMILES: C=C(C)C(=O)NCC(C)OC(=O)COC(=O)COC(=O)CCC(=O)OCC(=O)OCC(=O)OC(C)CNC(=O)C(=C)C (stereo not shown) [HPMAGlyGlySuc, di[({[1-methyl-2-(2-methylprop-2-enoylamino)ethyl]oxycarbon-yl}methyl)oxycarbonyl]methylbutane-1,4-dioate]
- release of rhodamine labeled HPMA polymer backbone [1]: largely occurs to the greatest extent at the onset of complete degradation of the polymer
- release of rhodamine labeled albumin from the gel network [1]: more closely follows the swelling of the network
- degradation / hydrolysis and swelling kinetics of the gel (in words) [2]: fastest hydrolysis and swelling kinetics
- time to complete degradation of the gel [2]: about 5 days

SMILES: C=C(C)C(=O)NCC(C)OC(=O)COC(=O)CCC(=O)OCC(=O)OC(C)CNC(=O)C(=C)C (stereo not shown) [HPMAGlySuc, di{[1-methyl-2-(2-methylprop-2-enoylamino)ethyl]oxycarbonyl}methyl butane-1,4-dioate]
- swelling with water relative to total initial polymer volume [3]: approximately 20 times the total initial polymer volume

SMILES: C=C(C)C(=O)NCC(C)OC(=O)[C@H](C)OC(=O)CCC(=O)O[C@@H](C)C(=O)OC(C)CNC(=O)C(=C)C (stereo partly drawn) [HPMALacSuc, di(1S)-1-{[1-methyl-2-(2-methylprop-2-enoylamino)ethyl]oxycarbonyl}ethyl butane-1,4-dioate]
- degradation / hydrolysis and swelling kinetics of the gel (in words) [4]: slower degradation than the glycolic

SMILES: C=C(C)C(=O)NCC(C)OC(=O)CCC(=O)OC(C)CNC(=O)C(=C)C (stereo not shown) [HPMASuc, bis-1-methyl-2-(2-methylprop-2enoylamino)ethyl-1,4-butanedioate, reference compound]
- degradation / hydrolysis and swelling kinetics of the gel (in words) [4]: non-degradable
